# Assay results: patent publication US12594276B2, “Inhibitors of human immunodeficiency virus replication” (ViiV Healthcare UK (No.5) Limited, priority 2024, dated 2026)
# Legend:
# [1] = test system: recombinant NL4-3 virus (nef section replaced with Renilla luciferase gene) in MT-2 cells; assay: HIV cell culture assay (antiviral activity, luciferase readout); assay type: cell-based; details: Renilla, NL43, MT-2 cells infected for 4-5 days with recombinant NL4-3 Renilla luciferase virus
# In short: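 Compound activity was measured as reduction of luciferase in MT-2 cells infected for 4-5 days with serially diluted compound present. EC50 values were calculated with the median effect equation.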
# [2] = Compound cytotoxicity, XTT-based colorimetric assay; assay type: cell-based; details: human; uninfected MT2 cells, day 4, XTT; read-out: CC50
# In short: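 Cells seeded as for the antiviral assay but left uninfected (MT2). Compound exposure continued to day 4. XTT reagent added and colour read. CC50 calculated.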
SMILES,EC50 [1] [nM],CC50 at 4 days [2] [nM]
"Cc1cc(C2(F)CCC(F)(F)CC2)nc2nc([C@H](Cc3cc(F)cc(F)c3)NC(=O)Cn3nc([C@H]4CC4(F)F)c4c3C[C@H]3C[C@@H]43)n(-c3ccc(Cl)c4c(NS(C)(=O)=O)nn(CCN5C[C@@H](C)O[C@@H](C)C5)c34)c(=O)c12 (atropisomer, axis not shown; (P)) [Example 598, N-[(1S)-1-[(3P)-3-(4-chloro-1-{2-[(2R,6S)-2,6-dimethylmorpholin-4-yl]ethyl}-3-methanesulfonamido-1H-indazol-7-yl)-5-methyl-4-oxo-7-(1,4,4-trifluorocyclohexyl)-3H,4H-pyrido[2,3-d]pyrimidin-2-yl]-2-(3,5-difluorophenyl)ethyl]-2-[(2R,4R)-9-[(1R)-2,2-difluorocyclopropyl]-7,8-diazatricyclo[4.3.0.0^2,^4]nona-1(6),8-dien-7-yl]acetamide]",0.009,> 20
"COCCCn1nc(NS(C)(=O)=O)c2c(Cl)ccc(-n3c([C@H](Cc4cc(F)cc(F)c4)NC(=O)Cn4nc(C5CC5)c5c4C[C@@H]4C[C@H]54)nc4nc(C5CCC(F)(F)CC5)cc(CN5C[C@@H](C)O[C@@H](C)C5)c4c3=O)c21 (atropisomer, axis not shown; (P)) [Example 599, N-[(1S)-1-[(3P)-3-[4-chloro-3-methanesulfonamido-1-(3-methoxypropyl)-1H-indazol-7-yl]-7-(4,4-difluorocyclohexyl)-5-{[(2R,6S)-2,6-dimethylmorpholin-4-yl]methyl}-4-oxo-3H,4H-pyrido[2,3-d]pyrimidin-2-yl]-2-(3,5-difluorophenyl)ethyl]-2-[(2S,4S)-9-cyclopropyl-7,8-diazatricyclo[4.3.0.0^2,^4]nona-1(6),8-dien-7-yl]acetamide]",0.007,> 20
"COCCCn1nc(NS(C)(=O)=O)c2c(Cl)ccc(-n3c([C@H](Cc4cc(F)cc(F)c4)NC(=O)Cn4nc(C(F)F)c5c4C(F)(F)[C@@H]4C[C@H]54)nc4nc(C5(F)CCC(F)(F)CC5)cc(CN5C[C@@H](C)O[C@@H](C)C5)c4c3=O)c21 (atropisomer, axis not shown; (P)) [Example 600, N-[(1S)-1-[(3P)-3-[4-chloro-3-methanesulfonamido-1-(3-methoxypropyl)-1H-indazol-7-yl]-5-{[(2R,6S)-2,6-dimethylmorpholin-4-yl]methyl}-4-oxo-7-(1,4,4-trifluorocyclohexyl)-3H,4H-pyrido[2,3-d]pyrimidin-2-yl]-2-(3,5-difluorophenyl)ethyl]-2-[(2S,4R)-9-(difluoromethyl)-5,5-difluoro-7,8-diazatricyclo[4.3.0.0^2,^4]nona-1(6),8-dien-7-yl]acetamide]",0.008,> 20
"CCNc1cc(C2CCC(F)(F)CC2)nc2nc([C@H](Cc3cc(F)cc(F)c3)NC(=O)Cn3nc(C4CC4)c4c3C[C@@H]3C[C@H]43)n(-c3ccc(Cl)c4c(NS(C)(=O)=O)nn(CCCOC)c34)c(=O)c12 (atropisomer, axis not shown; (P)) [Example 601, N-[(1S)-1-[(3P)-3-[4-chloro-3-methanesulfonamido-1-(3-methoxypropyl)-1H-indazol-7-yl]-7-(4,4-difluorocyclohexyl)-5-(ethylamino)-4-oxo-3H,4H-pyrido[2,3-d]pyrimidin-2-yl]-2-(3,5-difluorophenyl)ethyl]-2-[(2S,4S)-9-cyclopropyl-7,8-diazatricyclo[4.3.0.0^2,^4]nona-1(6),8-dien-7-yl]acetamide]",0.008,> 20
"COCCCn1nc(NS(C)(=O)=O)c2c(Cl)ccc(-n3c([C@H](Cc4cc(F)cc(F)c4)NC(=O)Cn4nc(C5CC5)c5c4C[C@@H]4C[C@H]54)nc4nc(C5(F)CCC(F)(F)CC5)cc(CN5C[C@@H](C)O[C@@H](C)C5)c4c3=O)c21 (atropisomer, axis not shown; (P)) [Example 602, N-[(1S)-1-[(3P)-3-[4-chloro-3-methanesulfonamido-1-(3-methoxypropyl)-1H-indazol-7-yl]-5-{[(2R,6S)-2,6-dimethylmorpholin-4-yl]methyl}-4-oxo-7-(1,4,4-trifluorocyclohexyl)-3H,4H-pyrido[2,3-d]pyrimidin-2-yl]-2-(3,5-difluorophenyl)ethyl]-2-[(2S,4S)-9-cyclopropyl-7,8-diazatricyclo[4.3.0.0^2,^4]nona-1(6),8-dien-7-yl]acetamide]",0.017,> 20
"COCCCn1nc(NS(C)(=O)=O)c2c(Cl)ccc(-n3c([C@H](Cc4cc(F)cc(F)c4)NC(=O)Cn4nc(C5CC5)c5c4C[C@@H]4C[C@H]54)nc4nc(C5CCC(F)(F)CC5)cc(CN5CC(F)(F)C5)c4c3=O)c21 (atropisomer, axis not shown; (P)) [Example 603, N-[(1S)-1-[(3P)-3-[4-chloro-3-methanesulfonamido-1-(3-methoxypropyl)-1H-indazol-7-yl]-5-[(3,3-difluoroazetidin-1-yl)methyl]-7-(4,4-difluorocyclohexyl)-4-oxo-3H,4H-pyrido[2,3-d]pyrimidin-2-yl]-2-(3,5-difluorophenyl)ethyl]-2-[(2S,4S)-9-cyclopropyl-7,8-diazatricyclo[4.3.0.0^2,^4]nona-1(6),8-dien-7-yl]acetamide]",0.004,> 20
"COCCCn1nc(NS(C)(=O)=O)c2c(Cl)ccc(-n3c([C@H](Cc4cc(F)cc(F)c4)NC(=O)Cn4nc(C(F)F)c5c4C(F)(F)[C@@H]4C[C@H]54)nc4nc(C5CCC(F)(F)CC5)cc(CN5CC(OC)C5)c4c3=O)c21 (atropisomer, axis not shown; (P)) [Example 604, N-[(1S)-1-[(3P)-3-[4-chloro-3-methanesulfonamido-1-(3-methoxypropyl)-1H-indazol-7-yl]-7-(4,4-difluorocyclohexyl)-5-[(3-methoxyazetidin-1-yl)methyl]-4-oxo-3H,4H-pyrido[2,3-d]pyrimidin-2-yl]-2-(3,5-difluorophenyl)ethyl]-2-[(2S,4R)-9-(difluoromethyl)-5,5-difluoro-7,8-diazatricyclo[4.3.0.0^2,^4]nona-1(6),8-dien-7-yl]acetamide]",0.011,> 20
"COCCCn1nc(NS(C)(=O)=O)c2c(Cl)ccc(-n3c([C@H](Cc4cc(F)cc(F)c4)NC(=O)Cn4nc(C(F)F)c5c4C(F)(F)[C@@H]4C[C@H]54)nc4nc(C5CCC(F)(F)CC5)cc(CN5CC(C(F)(F)F)C5)c4c3=O)c21 (atropisomer, axis not shown; (P)) [Example 605, N-[(1S)-1-[(3P)-3-[4-chloro-3-methanesulfonamido-1-(3-methoxypropyl)-1H-indazol-7-yl]-7-(4,4-difluorocyclohexyl)-4-oxo-5-{[3-(trifluoromethyl)azetidin-1-yl]methyl}-3H,4H-pyrido[2,3-d]pyrimidin-2-yl]-2-(3,5-difluorophenyl)ethyl]-2-[(2S,4R)-9-(difluoromethyl)-5,5-difluoro-7,8-diazatricyclo[4.3.0.0^2,^4]nona-1(6),8-dien-7-yl]acetamide]",0.018,> 20
"COCCCn1nc(NS(C)(=O)=O)c2c(Cl)ccc(-n3c([C@H](Cc4cc(F)cc(F)c4)NC(=O)Cn4nc(C(F)F)c5c4C(F)(F)[C@@H]4C[C@H]54)nc4nc(C5CCC(F)(F)CC5)ccc4c3=O)c21 (atropisomer, axis not shown; (P)) [Example 623, N-[(1S)-1-[(3P)-3-[4-chloro-3-methanesulfonamido-1-(3-methoxypropyl)-1H-indazol-7-yl]-7-(4,4-difluorocyclohexyl)-4-oxo-3H,4H-pyrido[2,3-d]pyrimidin-2-yl]-2-(3,5-difluorophenyl)ethyl]-2-[(2S,4R)-9-(difluoromethyl)-5,5-difluoro-7,8-diazatricyclo[4.3.0.0^2,^4]nona-1(6),8-dien-7-yl]acetamide]",0.012,> 100
"CCc1cc(C2CCC(F)(F)CC2)nc2nc([C@H](Cc3cc(F)cc(F)c3)NC(=O)Cn3nc(C(F)F)c4c3C(F)(F)[C@@H]3C[C@H]43)n(-c3ccc(Cl)c4c(NS(C)(=O)=O)nn(CCOC)c34)c(=O)c12 (atropisomer, axis not shown; (P)) [Example 632, N-[(1S)-1-[(3P)-3-[4-chloro-3-methanesulfonamido-1-(2-methoxyethyl)-1H-indazol-7-yl]-7-(4,4-difluorocyclohexyl)-5-ethyl-4-oxo-3H,4H-pyrido[2,3-d]pyrimidin-2-yl]-2-(3,5-difluorophenyl)ethyl]-2-[(2S,4R)-9-(difluoromethyl)-5,5-difluoro-7,8-diazatricyclo[4.3.0.0^2,^4]nona-1(6),8-dien-7-yl]acetamide]",0.021,> 50
"CCc1cc(C2CCC(F)(F)CC2)nc2nc([C@H](Cc3cc(F)cc(F)c3)NC(=O)Cn3nc(C(F)F)c4c3C(F)(F)[C@@H]3C[C@H]43)n(-c3ccc(Cl)c4c(NS(C)(=O)=O)nn(CCCOC)c34)c(=O)c12 (atropisomer, axis not shown; (P)) [Example 638, N-[(1S)-1-[(3P)-3-[4-chloro-3-methanesulfonamido-1-(3-methoxypropyl)-1H-indazol-7-yl]-7-(4,4-difluorocyclohexyl)-5-ethyl-4-oxo-3H,4H-pyrido[2,3-d]pyrimidin-2-yl]-2-(3,5-difluorophenyl)ethyl]-2-[(2S,4R)-9-(difluoromethyl)-5,5-difluoro-7,8-diazatricyclo[4.3.0.0^2,^4]nona-1(6),8-dien-7-yl]acetamide]",0.018,> 50
